The values that follow come from PubChem BioAssay (NCI).

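Method: 48-hour compound exposure of cells in 96-well plates, five concentrations, linear interpolation of endpoints. GI50: concentration for 50% inhibition of growth. TGI: total growth inhibition.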

Test systems include SK-MEL-5 melanoma; NCI-H23 lung; MCF7 breast; HCT-116 colon; SK-MEL-2 melanoma; TK-10 renal; SK-MEL-28 melanoma; MDA-MB-435; IGROV1 ovarian; ACHN renal.
Assay in all cases: NCI-60 cell line screen, 48 h

Take `COc1ccc(OC(=O)O[C@H]2[C@H](O[C@H]3[C@@H](O)COC(O[C@H]4C[C@H]5[C@@H]6CC=C7C[C@@H](O)CC[C@]7(C)[C@H]6CC[C@]5(C)[C@H]4[C@H](C)C(=O)CCC(C)C)[C@@H]3OC(C)=O)OC[C@@H](O)[C@@H]2O)cc1` (stereo not given in full): the GI50 is 0.0347 µM in the experiment on SK-MEL-5 melanoma; 0.966 µM with NCI-H23 lung; 0.0782 µM with MCF7 breast; 0.0621 µM with HCT-116 colon; 0.0199 µM in the experiment on SK-MEL-2 melanoma; 2.24 µM with TK-10 renal. Also, the GI50 was 0.0185 µM in the experiment on SK-MEL-28 melanoma, 0.0695 µM with MDA-MB-435, 0.335 µM in the experiment with IGROV1 ovarian and 0.496 µM in the experiment on ACHN renal. Also, the TGI worked out at 0.176 µM in the experiment with SK-MEL-5 melanoma; 19.1 µM in the experiment on NCI-H23 lung; 12.8 µM in the experiment on MCF7 breast; 14.1 µM in the experiment with HCT-116 colon; 0.645 µM in the experiment on SK-MEL-2 melanoma; 21.1 µM in the experiment on TK-10 renal. The TGI was 0.155 µM in the experiment with SK-MEL-28 melanoma, 0.759 µM in the experiment on MDA-MB-435, 18.2 µM in the experiment on IGROV1 ovarian and 18 µM in the experiment with ACHN renal.
Turning to `CCOC(=O)c1c(C)n(Cc2ccc(OC)cc2)c2c1cc(O)c1[nH]c3c(c12)CCCC3`, the GI50 is 1.74 µM with SK-MEL-5 melanoma; 1.9 µM in the experiment with NCI-H23 lung; 4.97 µM with MCF7 breast; 2.74 µM in the experiment on HCT-116 colon; 2.39 µM with SK-MEL-2 melanoma; 12.5 µM in the experiment on TK-10 renal. The GI50 with SK-MEL-28 melanoma is 10.7 µM; with MDA-MB-435 it was 15.9 µM; with IGROV1 ovarian, 3.76 µM; in the experiment on ACHN renal, 6.72 µM. In addition, the TGI in the experiment on SK-MEL-5 melanoma was found to be 3.24 µM; with NCI-H23 lung, 13.3 µM; in the experiment on MCF7 breast, 19.8 µM; with HCT-116 colon it was 12.1 µM; in the experiment with SK-MEL-2 melanoma, 7.05 µM; in the experiment with TK-10 renal it was 52.9 µM. In addition, the TGI in the experiment with SK-MEL-28 melanoma was above 100 µM; in the experiment on MDA-MB-435, 82 µM; in the experiment with IGROV1 ovarian, 20.5 µM; in the experiment with ACHN renal, 35.6 µM.
With `CC(=O)[O][Hg][c]1c(C)c(C)c(C)c(C)c1C`, the GI50 with SK-MEL-5 melanoma is 1.38 µM; with NCI-H23 lung, 0.98 µM; in the experiment on MCF7 breast, 0.843 µM; in the experiment with HCT-116 colon it was 3.38 µM; with SK-MEL-2 melanoma, 1.41 µM; in the experiment with TK-10 renal, 2.03 µM. Also, the GI50 in the experiment on SK-MEL-28 melanoma is 1.26 µM; in the experiment with MDA-MB-435, 1.5 µM; in the experiment with IGROV1 ovarian it was 0.604 µM; in the experiment with ACHN renal, 10 µM. Also, the TGI in the experiment on SK-MEL-5 melanoma worked out at 2.74 µM; with NCI-H23 lung it was 2.52 µM; with MCF7 breast, 2.13 µM; in the experiment with HCT-116 colon, 11.8 µM; in the experiment with SK-MEL-2 melanoma it was 3.37 µM; in the experiment on TK-10 renal, 3.72 µM. In addition, the TGI in the experiment on SK-MEL-28 melanoma was found to be 2.63 µM; in the experiment with MDA-MB-435, 3.09 µM; with IGROV1 ovarian, 2.2 µM; in the experiment with ACHN renal, 23.1 µM.
`CNC1C(=O)C(C)C(O)(C(CC(C)C(O)/C=C/C=C/CNC(=O)C(C)(C)C(O)\C(C)=C/C=C\C=C\Cc2cnc(C)o2)OC)C12C(=O)OC2COC` (stereo not given) (tested in a mixture with another compound): the TGI in the experiment with SK-MEL-5 melanoma is 18.4 µM; in the experiment on NCI-H23 lung it was above 60.7 µM; with MCF7 breast, above 84.9 µM; in the experiment on HCT-116 colon, above 49.9 µM; in the experiment with SK-MEL-2 melanoma it was above 71.7 µM; with TK-10 renal it was above 100 µM. Moreover, the TGI was above 100 µM in the experiment with SK-MEL-28 melanoma, above 100 µM in the experiment on MDA-MB-435, above 26.2 µM with IGROV1 ovarian and above 43.2 µM in the experiment on ACHN renal.
In the case of `O=c1[nH]c(=O)n(C2CC(O)C(CS)O2)cc1F` (stereo not given), the TGI with SK-MEL-5 melanoma was above 100 µM; in the experiment with NCI-H23 lung, above 100 µM; in the experiment on MCF7 breast, above 43.5 µM; with HCT-116 colon it was above 100 µM; in the experiment on SK-MEL-2 melanoma it was above 100 µM; with TK-10 renal, above 100 µM. Also, the TGI in the experiment on SK-MEL-28 melanoma is above 100 µM; with MDA-MB-435 it was above 100 µM; with IGROV1 ovarian, above 100 µM; in the experiment on ACHN renal, above 92.4 µM.
`Cn1cc(C2=C(c3cn(CCCN=C(N)N)c4ccccc34)C(=O)NC2=O)c2ccccc21`: the GI50 with SK-MEL-5 melanoma was above 25 µM; in the experiment with NCI-H23 lung it was above 25 µM; in the experiment with MCF7 breast it was above 25 µM; in the experiment with HCT-116 colon it was above 25 µM; in the experiment on SK-MEL-2 melanoma it was above 18.4 µM; in the experiment with TK-10 renal it was above 25 µM. Also, the GI50 in the experiment on SK-MEL-28 melanoma is above 25 µM; in the experiment on MDA-MB-435, above 25 µM; in the experiment with IGROV1 ovarian, 14.8 µM; in the experiment with ACHN renal, above 25 µM. Also, the TGI in the experiment on SK-MEL-5 melanoma, in the experiment with NCI-H23 lung, in the experiment with MCF7 breast, with HCT-116 colon, in the experiment on SK-MEL-2 melanoma and in the experiment on TK-10 renal was above 25 µM each time. Further, the TGI with SK-MEL-28 melanoma, with MDA-MB-435, with IGROV1 ovarian and with ACHN renal was above 25 µM in each case.
As to `COc1ccc(-n2cc(-c3cc(OC)c(OC)c(OC)c3)[nH]c2=S)cc1OC`, the GI50 in the experiment with SK-MEL-5 melanoma, in the experiment on NCI-H23 lung, in the experiment on MCF7 breast, with HCT-116 colon, in the experiment with SK-MEL-2 melanoma and with TK-10 renal was above 100 µM in each case. In addition, the GI50 in the experiment on SK-MEL-28 melanoma, in the experiment with MDA-MB-435, with IGROV1 ovarian and with ACHN renal was above 100 µM throughout. Further, the TGI in the experiment with SK-MEL-5 melanoma, with NCI-H23 lung, in the experiment with MCF7 breast, in the experiment with HCT-116 colon, in the experiment on SK-MEL-2 melanoma and in the experiment on TK-10 renal was above 100 µM each time. In addition, the TGI in the experiment with SK-MEL-28 melanoma, in the experiment on MDA-MB-435, in the experiment on IGROV1 ovarian and in the experiment on ACHN renal was above 100 µM throughout.
Regarding `CCC1(O)C(=O)OCc2c1cc1n(c2=O)Cc2cc3c(N)cccc3nc2-1` (stereo not given), the TGI was 0.192 µM in the experiment on SK-MEL-5 melanoma; 0.0806 µM with NCI-H23 lung; above 39.7 µM in the experiment on MCF7 breast; 0.735 µM in the experiment on HCT-116 colon; 3.43 µM with SK-MEL-2 melanoma; 35.8 µM in the experiment on TK-10 renal. Also, the TGI in the experiment with SK-MEL-28 melanoma was 9.19 µM; with MDA-MB-435, 2.88 µM; in the experiment with IGROV1 ovarian it was 6.23 µM; in the experiment on ACHN renal, 0.157 µM.
